Source: US7329666B2, “Derivatives of variolin B” (Pharma Mar, S.A., priority 2000, dated 2008)
pIC50: −log10 of the molar value.

How the values were obtained:
HT-29 = test: cytotoxicity against HT-29; format: cell-based; settings: Homo sapiens
Procedure: (§1) The cytotoxicity of the compounds of scheme 4 of this invention is illustrated by the following IC50 μM data: […]

P-388 = test: cytotoxicity against P-388; format: cell-based; settings: Mus musculus, P388
Procedure: as §1

A-549 = test: cytotoxicity against A-549; format: cell-based; settings: Homo sapiens, A549
Procedure: as §1

P388 cell line = settings: Tetrahedron 1994, 50, 3987-3992; cited from earlier work
[1] = cited from earlier work
HCT 116 cell line = settings: cited from earlier work
Sacharomyces cerevisiae = settings: cited from earlier work
other microorganisms = settings: cited from earlier work
Herpes simplex = settings: cited from earlier work

Structure (SMILES) | pIC50 (HT-29) | pIC50 (P-388) | pIC50 (A-549) | also measured
Nc1nccc(-c2c3cccnc3n3c(N)nccc23)n1 [Compound 5, 9-Amino-5-(2-aminopyrimidin-4-yl)pyrido[3′,2′:4,5]pyrrolo[1,2-c]-pyrimidine] | 7.40 | 6.44 | 7.40 | 
C[n+]1c([O-])cc(-c2c3c(O)ccnc3n3c(N)nccc23)nc1N [Variolin A] |  |  |  | cytotoxic activity against the P388 cell line (P388 cell line): important cytotoxic activity
CSc1nccc(-c2c3cccnc3n3c(N)nccc23)n1 [Compound 21, 9-Amino-5-(2-methanesulfanylpyrimidin-4-yl)pyrido[3′,2′:4,5]pyrrolo[1,2-c]pyrimidine] | 6.80 | < 5.52 | 6.80 | 
CSc1nccc(-c2c3cccnc3n3c(NC(C)=O)nccc23)n1 [Compound 20a, 9-Acetylamino-5-(2-methanesulfanylpyrimidin-4-yl)pyrido[3′,2′:4,5]-pyrrolo-[1,2-c]pyrimidine] | 6.54 | < 5.52 | 6.54 | 
COC(=O)c1c2c(O)ccnc2n2c(N)nccc12 [Variolin D, variolin D] |  |  |  | activity in all the assays [1]: inactive
CN1C(N)=NCCC1c1c2c(O)ccnc2n2c(N)nccc12 (stereo not shown) [N(3′)-methyltetrahydrovariolin B, N (3′)-methyl tetrahydrovariolin B] |  |  |  | in vitro activity against the HCT 116 cell line (HCT 116 cell line): in vitro activity; growth of Sacharomyces cerevisiae (Sacharomyces cerevisiae): inhibited the growth
Nc1nccc(-c2c3c(O)ccnc3n3c(N)nccc23)n1 [variolin B] | 7.05 | 6.07 | 6.77 | cytotoxic activity against the P388 cell line (P388 cell line): cytotoxic activity; activity against a range of other microorganisms (other microorganisms): inactive; effectiveness against Herpes simplex (Herpes simplex): effective
